Results: patent US8785614B2, “Aberrantly methylated genes in pancreatic cancer” (The Johns Hopkins University, priority 2003, dated 2014)

Columns and labels:
[1] = system: AsPC1 pancreatic cancer cell line; assay: Oligonucleotide microarray gene expression after TSA (1 μM, 24 h) vs mock; assay type: cell-based, human
Excerpt: (§1) These include a large panel of novel targets for silencing by histone deacetylation including several known tumor suppressor genes or cell cycle-regulatory genes (ING1, p57KIP2, CHES1, CHFR, GADD45B, and others).

[2] = system: Hs766T pancreatic cancer cell line; assay: as above; assay type: cell-based, human
Excerpt: as §1

In the case of `CC(/C=C/C(=O)NO)=C\[C@@H](C)C(=O)c1ccc(N(C)C)cc1` [TSA, trichostatin A], the “Fold-change after TSA treatment” value ([1]; ADM, AsPC1) is reported as 7.6 fold, the “Fold-change after TSA treatment” value ([1]; ANGPT1, AsPC1) is reported as −1.77 fold and the “Fold-change after TSA treatment” value ([1]; AREG, AsPC1) is reported as 18.35 fold. The “Fold-change after TSA treatment” value ([1]; ATF3, AsPC1) was 8.73 fold, the “transcripts with marked induction” value ([1]; AsPC1) was 424 transcripts and the “transcripts with marked induction, share of transcripts analyzed” value ([1]; AsPC1) was 2.3%. For the same compound, the “Fold-change after TSA treatment” value ([1]; BIK, AsPC1) was 1.65 fold, the “Fold-change after TSA treatment” value ([1]; CACNA1G, AsPC1) was 9.95 fold and the “Fold-change after TSA treatment” value ([1]; CAPN5, AsPC1) was 1.73 fold. The “Fold-change after TSA treatment” value ([1]; CDH8, AsPC1) was 1.11 fold, the “Fold-change after TSA treatment” value ([1]; CDKN1C, AsPC1) was 10.62 fold and the “Fold-change after TSA treatment” value ([1]; CGR11, AsPC1) was −1.39 fold. For the same compound, the “Fold-change after TSA treatment” value ([1]; CHES1, AsPC1) was 1.87 fold, the “Fold-change after TSA treatment” value ([1]; CHFR, AsPC1) was −1.1 fold and the “Fold-change after TSA treatment” value ([1]; CLDN15, AsPC1) was −4.26 fold. For the same compound, the “Fold-change after TSA treatment” value ([1]; EDR1, AsPC1) was 4.56 fold, the “Fold-change after TSA treatment” value ([1]; EGR4, AsPC1) was 37.6 fold and the “Fold-change after TSA treatment” value ([1]; EREG, AsPC1) was 1.91 fold. The “Fold-change after TSA treatment” value ([1]; GADD45B, AsPC1) was 2.65 fold, the “Fold-change after TSA treatment” value ([1]; GAGE1, AsPC1) was 0.66 fold and the “Fold-change after TSA treatment” value ([1]; GAGE2, AsPC1) was −2.5 fold. For the same compound, the “Fold-change after TSA treatment” value ([1]; GAGE3, AsPC1) was −5.88 fold, the “Fold-change after TSA treatment” value ([1]; GAGE4, AsPC1) was −1.67 fold and the “Fold-change after TSA treatment” value ([1]; GAGE6, AsPC1) was −1.16 fold. For the same compound, the “Fold-change after TSA treatment” value ([1]; GAGE7B, AsPC1) was −4.88 fold, the “Fold-change after TSA treatment” value ([1]; H1 historic family, member 2 (BC002649), AsPC1) was 6.64 fold and the “Fold-change after TSA treatment” value ([1]; HEP27, AsPC1) was 413.37 fold. For the same compound, the “Fold-change after TSA treatment” value ([1]; HMOX1, AsPC1) was 1.73 fold, the “Fold-change after TSA treatment” value ([1]; HPSE, AsPC1) was 2.18 fold and the “Fold-change after TSA treatment” value ([1]; ID2, AsPC1) was 10.26 fold. For the same compound, the “Fold-change after TSA treatment” value ([1]; ING1, AsPC1) was 13.22 fold, the “Fold-change after TSA treatment” value ([1]; KLK12, AsPC1) was 7.63 fold and the “Fold-change after TSA treatment” value ([1]; MAGE1, AsPC1) was 1.05 fold. The “Fold-change after TSA treatment” value ([1]; MBD1, AsPC1) was 2.66 fold, the “Fold-change after TSA treatment” value ([1]; MMP1, AsPC1) was 9.05 fold and the “Fold-change after TSA treatment” value ([1]; NGFR, AsPC1) was 0.76 fold. For the same compound, the “Fold-change after TSA treatment” value ([1]; NOTCH3, AsPC1) was 7.93 fold, the “Fold-change after TSA treatment” value ([1]; P-glycoprotein (mdr1), AsPC1) was 1.08 fold and the “Fold-change after TSA treatment” value ([1]; SPANXA1, AsPC1) was −0.78 fold. The “Fold-change after TSA treatment” value ([1]; STC1, AsPC1) was 15.9 fold, the “Fold-change after TSA treatment” value ([1]; UCPH, AsPC1) was 5.48 fold and the “Fold-change after TSA treatment” value ([1]; ULBP2, AsPC1) was 73.47 fold. The “Fold-change after TSA treatment” value ([1]; WNT4, AsPC1) was 5.72 fold, the “Fold-change after TSA treatment” value ([1]; candidate tumor suppressor gene 21 protein (AF040708), AsPC1) was −1.47 fold and the “Fold-change after TSA treatment” value ([1]; connective tissue growth factor (M92934), AsPC1) was 17.38 fold. The “Fold-change after TSA treatment” value ([1]; hemoglobin, alpha 1 (HBAI), AsPC1) was 20.5 fold, the “Fold-change after TSA treatment” value ([1]; interleukin 8, AsPC1) was 44.67 fold and the “Fold-change after TSA treatment” value ([1]; period homolog 1 (PERI), AsPC1) was 20.29 fold. For the same compound, the “Fold-change after TSA treatment” value ([1]; prostate differentiation factor (AF003934), AsPC1) was 4.45 fold, the “Fold-change after TSA treatment” value ([1]; protease inhibitor 12 (neuroserpin) (SERPINU), AsPC1) was 8 fold and the “Fold-change after TSA treatment” value ([1]; synovial sarcoma, X breakpoint 1 (BC001003), AsPC1) was 1.74 fold. For the same compound, the “Fold-change after TSA treatment” value ([1]; tissue factor pathway inhibitor-2 (L27624), AsPC1) was 0.4 fold, the “Fold-change after TSA treatment” value ([2]; ADM, Hs766T) was 1.86 fold and the “Fold-change after TSA treatment” value ([2]; ANGPT1, Hs766T) was 6.72 fold. For the same compound, the “Fold-change after TSA treatment” value ([2]; AREG, Hs766T) was 2.02 fold, the “Fold-change after TSA treatment” value ([2]; ATF3, Hs766T) was 1.73 fold and the “Fold-change after TSA treatment” value ([2]; BIK, Hs766T) was 2.35 fold. The “Fold-change after TSA treatment” value ([2]; CACNA1G, Hs766T) was 2.72 fold, the “Fold-change after TSA treatment” value ([2]; CAPN5, Hs766T) was 1.06 fold and the “Fold-change after TSA treatment” value ([2]; CDH8, Hs766T) was −1.11 fold. The “Fold-change after TSA treatment” value ([2]; CDKN1C, Hs766T) was 6.57 fold, the “Fold-change after TSA treatment” value ([2]; CGR11, Hs766T) was 1.82 fold and the “Fold-change after TSA treatment” value ([2]; CHES1, Hs766T) was −1.11 fold. The “Fold-change after TSA treatment” value ([2]; CHFR, Hs766T) was 8 fold, the “Fold-change after TSA treatment” value ([2]; CLDN15, Hs766T) was −1.81 fold and the “Fold-change after TSA treatment” value ([2]; EDR1, Hs766T) was −1.26 fold. For the same compound, the “Fold-change after TSA treatment” value ([2]; EGR4, Hs766T) was 6.49 fold, the “Fold-change after TSA treatment” value ([2]; EREG, Hs766T) was 7.43 fold and the “Fold-change after TSA treatment” value ([2]; GADD45B, Hs766T) was 2.01 fold. The “Fold-change after TSA treatment” value ([2]; GAGE1, Hs766T) was 14.57 fold, the “Fold-change after TSA treatment” value ([2]; GAGE2, Hs766T) was 432.64 fold and the “Fold-change after TSA treatment” value ([2]; GAGE3, Hs766T) was 184.93 fold. The “Fold-change after TSA treatment” value ([2]; GAGE4, Hs766T) was 234.36 fold, the “Fold-change after TSA treatment” value ([2]; GAGE6, Hs766T) was 237.45 fold and the “Fold-change after TSA treatment” value ([2]; GAGE7B, Hs766T) was 331.97 fold. The “Fold-change after TSA treatment” value ([2]; H1 historic family, member 2 (BC002649), Hs766T) was 5.8 fold, the “Fold-change after TSA treatment” value ([2]; HEP27, Hs766T) was 1631 fold and the “Fold-change after TSA treatment” value ([2]; HMOX1, Hs766T) was 2.56 fold. The “Fold-change after TSA treatment” value ([2]; HPSE, Hs766T) was −1.12 fold, the “transcripts with marked induction” value ([2]; Hs766T) was 349 transcripts and the “transcripts with marked induction, share of transcripts analyzed” value ([2]; Hs766T) was 1.9%. The “Fold-change after TSA treatment” value ([2]; ID2, Hs766T) was 5 fold, the “Fold-change after TSA treatment” value ([2]; ING1, Hs766T) was 11.83 fold and the “Fold-change after TSA treatment” value ([2]; KLK12, Hs766T) was 1.54 fold. The “Fold-change after TSA treatment” value ([2]; MAGE1, Hs766T) was 0.49 fold, the “Fold-change after TSA treatment” value ([2]; MBD1, Hs766T) was 7.94 fold and the “Fold-change after TSA treatment” value ([2]; MMP1, Hs766T) was 1.63 fold. For the same compound, the “Fold-change after TSA treatment” value ([2]; NGFR, Hs766T) was 4.11 fold, the “Fold-change after TSA treatment” value ([2]; NOTCH3, Hs766T) was 2.06 fold and the “Fold-change after TSA treatment” value ([2]; P-glycoprotein (mdr1), Hs766T) was 5.74 fold. The “Fold-change after TSA treatment” value ([2]; SPANXA1, Hs766T) was 15.92 fold, the “Fold-change after TSA treatment” value ([2]; STC1, Hs766T) was −1.31 fold and the “Fold-change after TSA treatment” value ([2]; UCPH, Hs766T) was −1.45 fold. The “Fold-change after TSA treatment” value ([2]; ULBP2, Hs766T) was 3.47 fold, the “Fold-change after TSA treatment” value ([2]; WNT4, Hs766T) was 0.81 fold and the “Fold-change after TSA treatment” value ([2]; candidate tumor suppressor gene 21 protein (AF040708), Hs766T) was 5.14 fold. The “Fold-change after TSA treatment” value ([2]; connective tissue growth factor (M92934), Hs766T) was 43 fold, the “Fold-change after TSA treatment” value ([2]; hemoglobin, alpha 1 (HBAI), Hs766T) was 1.55 fold and the “Fold-change after TSA treatment” value ([2]; interleukin 8, Hs766T) was −1.42 fold. For the same compound, the “Fold-change after TSA treatment” value ([2]; period homolog 1 (PERI), Hs766T) was 9.7 fold, the “Fold-change after TSA treatment” value ([2]; prostate differentiation factor (AF003934), Hs766T) was 3.17 fold and the “Fold-change after TSA treatment” value ([2]; protease inhibitor 12 (neuroserpin) (SERPINU), Hs766T) was 1.95 fold. The “Fold-change after TSA treatment” value ([2]; synovial sarcoma, X breakpoint 1 (BC001003), Hs766T) was 38.74 fold and the “Fold-change after TSA treatment” value ([2]; tissue factor pathway inhibitor-2 (L27624), Hs766T) was 120.09 fold.
